Tests used:
Assay type in all cases: cell-based
[1] = tested on: SPI1 type III protein secretion system (SopE-Bla secretion); experiment: Primary assay: Type III protein secretion of the chimeric SopE-Bla polypeptide by Salmonella enterica (nitrocefin hydrolysis); conditions: read-out: SopE IC50(uM)
Description: Primary assay: Type III protein secretion of the chimeric SopÉ-Bla polypeptide by Salmonella enterica. This procedure is a cell-based assay that measures the type III-dependent secretion by Salmonella enterica of a plasmid-encoded chimeric polypeptide whose synthesis can be regulated, and which is endowed with an enzymatic activity that can be monitored calorimetrically by hydrolysis of a substrate that is unable to penetrate into the bacterial cytoplasm within the time constraints of the reaction. Thus, the colorimetric reaction is not influenced by SopÉ-Bla polypeptide in the bacterial cytoplasm. Instead, it effectively measures the amount of polypeptide that has been secreted from the S. enterica cytoplasm to the extracellular medium via type III system protein secretion.
The SopÉ-Bla recombinant polypeptide consists of two functionally distinct domains spliced together. The N-terminus domain is encoded by a polynucleotide region specifying the signal for type III secretion of the SopE polypeptide of S. enterica, an effector of the SPI1 type III protein secretion system. The C-terminus domain of SopÉ-Bla consists of a 263 amino acid peptide sequence that corresponds to the TEM-1 β-lactamase expressed by plasmid pBR322 but without its N-terminal signal sequence. The TEM-1 β-lactamase part of the SopÉ-Bla chimeric polypeptide is used as a reporter enzyme. It is capable of hydrolyzing nitrocefin resulting in a product whose accumulation can be monitored by colorimetric detection. The secretion of the SopÉ-Bla chimeric polypeptide from the cytoplasm to the extracellular medium is dependent on type III protein secretion.
For this procedure, cells grown under conditions known to favor a functional SPI1 secretion system are induced for expression of the SopÉ-Bla protein and grown either in the presence or in the absence of putative inhibitors for determined time. Nitrocefin is then added to the various cultures and its hydrolysis are used for quantitation. An inhibitor of Type III protein secretion is generally a compound that reduces the signal of the enzymatic reaction by decreasing the amount of SopÉ-Bla secreted into the extracellular medium.

[2] = tested on: type III protein secretion system of P. aeruginosa PA103 (ExoU secretion); experiment: Tertiary assay: Type III-dependent secretion of ExoU by P. aeruginosa PA103 (SDS-PAGE band quantitation); conditions: Pseudomonas aeruginosa, ExoU secreted into extracellular medium
Description: Tertiary assay: inhibition of Type III protein secretion of effectors from a Pseudomonas aeruginosa system. Type III protein secretion is used by P. aeruginosa to secrete several essential virulence determinants. One effector of the type III protein secretion system of P. aeruginosa PA103 is the virulence determinants ExoU.
The amount of Type III-dependent secretion of ExoU by P. aeruginosa PA103 can be determined in a cell-based assay by quantification of the 73.9 kDa ExoU protein secreted into the extracellular medium. Such quantitation can be achieved by growing strain PA103 in a deferrated medium in the presence of nitrilotriacetic acid (an inducer of Type III protein secretion in P. aeruginosa) and either in the presence or absence of putative inhibitors. After a prolonged growth period, the cells are sedimented and the supernatants concentrated by ammonium sulfate precipitation. The proteins in the resuspended pellets are separated by electrophoresis on SDS-polyacrylamide gels. After staining gels with Colloidal Blue™, the 73.9 kDa ExoU band is quantitated by scanning through an imager. The effects of inhibitors on the intensity of the ExoU band may be measured relative to that of untreated controls.

[3] = tested on: SPI1 type III protein secretion system (SipB secretion); experiment: Secondary assay: Type III-dependent protein secretion of the SipB polypeptide by S. enterica (immunoblot); conditions: Salmonella enterica, read-out: SipB IC50(uM)
Experimental: Secondary assay: Type III-dependent protein secretion of the SipB polypeptide by S. enterica. The SipB protein of S. enterica is another effector of the SPI1 type III protein secretion system from S. enterica. In this cell-based procedure, the Type III-dependent secretion of SipB from the bacterial cytoplasm to the extracellular medium was measured through its reactivity with a cognate mouse monoclonal.
Salmonella enterica cells growing either in the presence or in the absence of inhibitors are induced for the production of SipB. Following an established period of growth the cells are sedimented and the amount of SipB present in the supernatant is quantified with a scanning imager following application of immunoblot techniques. Detection may employ an anti-SipB mouse monoclonal antibody (e.g., obtained from Jorge Galan, SUNY at Stony Brook, N.Y.) followed by treatment with commercially available sheep anti-mouse polyclonal antibody conjugated with horseradish peroxidase. Thereafter the membrane is treated with a peroxidase chemiluminescent substrate and exposed to film for an appropriate exposure time. Inhibition may be measured relative to untreated controls.

SMILES | IC50 [1] | IC50 [2] | IC50 [3]
CN(C)c1ccc(-c2cc(NC(=O)c3ccc(-c4ccccc4)cc3)c(=O)n(C(Cc3ccc(Cl)cc3)C(=O)O)c2)cc1 (stereo not drawn) [Compound 40, 2-[3-[(Biphenyl-4-carbonyl)amino]-5-(4-dimethylaminophenyl)-2-oxo-2H-pyridin-1-yl]-3-(4-chlorophenyl)propionic acid] | 2.8 µM | 56.4 µM | 10.2 µM
COc1ccc(-c2cc(NC(=O)c3ccc(-c4ccccc4)cc3)c(=O)n(C(Cc3ccc(Cl)cc3)C(=O)O)c2)cc1OC (stereo not drawn) [Compound 41, 2-[3-[(Biphenyl-4-carbonyl)amino]-5-(3,4-dimethoxyphenyl)-2-oxo-2H-pyridin-1-yl]-3-(4-chlorophenyl)propionic acid] | 3.2 µM | 67.4 µM | 15.9 µM
O=C(Nc1cc(-c2ccc3ccccc3c2)cn(C(Cc2ccc(Cl)cc2)C(=O)O)c1=O)c1ccc(-c2ccccc2)cc1 (stereo not drawn) [Compound 42, 2-{3-[(Biphenyl-4-carbonyl)amino]-5-naphthalen-2-yl-2-oxo-2H-pyridin-1-yl}-3-(4-chlorophenyl)propionic acid] | 1.1 µM | 41.3 µM | 76.2 µM
O=C(Nc1cc(-c2ccc3[nH]ccc3c2)cn(C(Cc2ccc(Cl)cc2)C(=O)O)c1=O)c1ccc(-c2ccccc2)cc1 (stereo not drawn) [Compound 43, 2-[3-[(Biphenyl-4-carbonyl)amino]-5-(1H-indol-5-yl)-2-oxo-2H-pyridin-1-yl]-3-(4-chlorophenyl)propionic acid] | 1.9 µM | 28 µM | > 100 µM
O=C(Nc1cc(-c2ccsc2)cn(C(Cc2ccc(Cl)cc2)C(=O)O)c1=O)c1ccc(-c2ccccc2)cc1 (stereo not drawn) [Compound 44, 2-{3-[(Biphenyl-4-carbonyl)amino]-2-oxo-5-thiophen-3-yl-2H-pyridin-1-yl}-3-(4-chlorophenyl)propionic acid] | 2.8 µM | > 100 µM | > 100 µM
O=C(Nc1cc(-c2ccoc2)cn(C(Cc2ccc(Cl)cc2)C(=O)O)c1=O)c1ccc(-c2ccccc2)cc1 (stereo not drawn) [Compound 45, 2-{3-[(Biphenyl-4-carbonyl)amino]-5-furan-3-yl-2-oxo-2H-pyridin-1-yl}-3-(4-chlorophenyl)propionic acid] | 4 µM | 49.4 µM | > 100 µM
O=C(Nc1cc(-c2ccc(-c3ccccc3)cc2)cn(C(Cc2ccc(Cl)cc2)C(=O)O)c1=O)c1ccc(-c2ccccc2)cc1 (stereo not drawn) [Compound 47, 2-{3-[(Biphenyl-4-carbonyl)amino]-5-biphenyl-4-yl-2-oxo-2H-pyridin-1-yl}-3-(4-chlorophenyl)propionic acid] | 1.4 µM | 39.4 µM | 55 µM
O=C(Nc1cc(-c2ccc(Oc3ccccc3)cc2)cn(C(Cc2ccc(Cl)cc2)C(=O)O)c1=O)c1ccc(-c2ccccc2)cc1 (stereo not drawn) [Compound 48, 2-[3-[(Biphenyl-4-carbonyl)amino]-2-oxo-5-(4-phenoxyphenyl)-2H-pyridin-1-yl]-3-(4-chlorophenyl)propionic acid] | 1.2 µM | 33.2 µM | 35 µM
O=C(Nc1cc(-c2ccccc2Oc2ccccc2)cn(C(Cc2ccc(Cl)cc2)C(=O)O)c1=O)c1ccc(-c2ccccc2)cc1 (stereo not drawn) [Compound 49, 2-[3-[(Biphenyl-4-carbonyl)amino]-2-oxo-5-(2-phenoxyphenyl)-2H-pyridin-1-yl]-3-(4-chlorophenyl)propionic acid] | < 0.8 µM | 46.3 µM | 48 µM
O=C(Nc1cc(-c2cccs2)cn(C(Cc2ccc(Cl)cc2)C(=O)O)c1=O)c1ccc(-c2ccccc2)cc1 (stereo not drawn) [Compound 50, 2-{3-[(Biphenyl-4-carbonyl)amino]-2-oxo-5-thiophen-2-yl-2H-pyridin-1-yl}-3-(4-chlorophenyl)propionic acid] | 6.4 µM | 51.4 µM | 27 µM
O=C(Nc1cc(-c2ccc(F)cc2)cn(C(Cc2ccc(Cl)cc2)C(=O)O)c1=O)c1ccc(Oc2ccccc2)cc1 (stereo not drawn) [Compound 51, 3-(4-Chlorophenyl)-2-[5-(4-fluorophenyl)-2-oxo-3-(4-phenoxybenzoylamino)-2H-pyridin 1-yl]propionic acid] | 4.9 µM | > 100 µM | > 100 µM
CN(C)c1ccc(-c2cc(NC(=O)c3ccc(Oc4ccccc4)cc3)c(=O)n(C(Cc3ccc(Cl)cc3)C(=O)O)c2)cc1 (stereo not drawn) [Compound 53, 3-(4-Chlorophenyl)-2-[5-(4-dimethylaminophenyl)-2-oxo-3-(4-phenoxy-benzoylamino)-2H-pyridin-1-yl]propionic acid] | 3.6 µM | 49 µM | > 100 µM

From patent publication US7087622B2, “Pyridone compounds as inhibitors of bacterial type III protein secreation systems” (priority 2004, dated 2006)
